# Data reported in patent publication US20250353819A1, “ARYL HYDANTOIN COMPOUNDS AND METHODS OF USE” (priority 2022, published 2025).
# Like-named read-outs stand apart in the source and are kept apart here.
# Key:
# [1] = Whole blood-to-plasma ratio, rat; format: in vitro ADME
# Experimental: As part of the assessment of the IV pharmacokinetics, an additional blood sample was collected from each rat at 1 h post dose for the purposes of determining the whole blood-to-plasma (B/P) ratio. Arterial blood was collected into tubes containing heparin. The haematocrit was determined via centrifugation (13000×g for 4 min using a Clemets® Microhematocrit centrifuge and Safecap® Plain Self-sealing Mylar Wrapped capillary tubes), and values ranged from 41% to 42%. Each blood aliquot ([…]) was collected and matrix matched with an equivalent volume of blank plasma. The remainder of the blood sample was centrifuged and […] plasma aliquot was collected and matrix matched with an equivalent volume of blank blood. Samples were frozen on dry ice and stored at −80° C. until analysis by LC-MS.
# [2] = Partition coefficient (Log D) by gradient HPLC; format: physicochemical; details: pH 7.4, chromatographic estimate; read-out: gLogD7.4
# Description: Partition Coefficient. Partition coefficient values (Log D) of the test compounds were estimated by correlation of their chromatographic retention properties against the characteristics of a series of standard compounds with known partition coefficient values using gradient HPLC (modification of a method reported by Lombardo et al., 2001).
# [3] = LogD7.4 (shake flask); details: pH 7.4
# [4] = Plasma protein binding, mouse plasma; format: in vitro ADME
# [5] = Stability in mouse cryopreserved hepatocytes; format: in vitro ADME
# [6] = Plasma protein binding, rat plasma; format: in vitro ADME; details: read-out: % bound (converted)
# [7] = molecular target: CYP 2C19 (Homo sapiens (Human), UniProt P33261); test: CYP inhibition in human liver microsomes, 2C19; format: in vitro ADME
# [8] = system: LAPC4 cells; test: Androgen-dependent cell-based assay (DHT, LAPC4)
# Experimental: Androgen-Dependent Cell-based Assay. As described by Jones and Diamond (2008), LAPC4 cells were cultured in phenol red free RPMI 1640 media supplemented with antibiotics and 10% FBS. […] […] Mean-effect plots (log[compound] vs. log[fractional effect]) were generated to determine the IC50 values for each test compound or combinations of test compounds at constant ratios.
# [9] = Pharmacokinetics in male Sprague Dawley rats; format: in vivo, rat; details: rats, mean (n = 3); for half-life: read-out: Apparent t1/2 (converted)
# Experimental: IV and oral formulations were prepared using the same method. On the day of dosing the solid compound was dissolved in DMSO prior to addition of a saline solution (0.9% w/v). The samples were then mixed using vortexing producing colourless solutions. The IV formulation was filtered through a 0.22 μm syringe filter prior to dosing and the oral formulation was dosed without filtration.
# Samples of arterial blood were collected up to 168 h post-dose. Urine samples were not collected as animals were housed in bedded cages. Arterial blood was collected directly into borosilicate vials (at 4° C.) containing heparin as anticoagulant. Once collected, blood samples were centrifuged, supernatant plasma was removed and stored frozen (−80° C.) until analysis by LC-MS. A summary of the bioanalytical method and assay validation details is included in Tables 14 and 15.
# Plasma concentration versus time data were analysed using non-compartmental methods (PKSolver Version 2.0). Standard calculations for each pharmacokinetic parameter are listed below.
# [10] = Plasma protein binding (rapid equilibrium dialysis), human plasma; format: in vitro ADME
# [11] = Stability in dog cryopreserved hepatocytes; format: in vitro ADME
# [12] = molecular target: CYP 1A2 (Homo sapiens (Human), UniProt P05177); test: CYP inhibition in human liver microsomes, 1A2; format: in vitro ADME
# [13] = Plasma protein binding, dog plasma; format: in vitro ADME; details: read-out: % bound (converted)
# [14] = In vitro metabolic stability, human liver microsomes; format: in vitro ADME; details: human liver microsomes; read-out: h CLint
# Experimental: In Vitro Metabolic Stability. As described by Charman et al. (2020), metabolic stability assays were performed by incubating test compounds in liver microsomes at 37° C. and 0.4 mg/mL protein concentration. The metabolic reaction was initiated by the addition of an NADPH-regenerating system and quenched at various time points over a 60 min incubation period by the addition of acetonitrile containing diazepam as internal standard. Control samples (containing no NADPH) were included (and quenched at 2, 30 and 60 min) to monitor for potential degradation in the absence of cofactor.
# Chain of CYP 2C19 (P33261 whole entry): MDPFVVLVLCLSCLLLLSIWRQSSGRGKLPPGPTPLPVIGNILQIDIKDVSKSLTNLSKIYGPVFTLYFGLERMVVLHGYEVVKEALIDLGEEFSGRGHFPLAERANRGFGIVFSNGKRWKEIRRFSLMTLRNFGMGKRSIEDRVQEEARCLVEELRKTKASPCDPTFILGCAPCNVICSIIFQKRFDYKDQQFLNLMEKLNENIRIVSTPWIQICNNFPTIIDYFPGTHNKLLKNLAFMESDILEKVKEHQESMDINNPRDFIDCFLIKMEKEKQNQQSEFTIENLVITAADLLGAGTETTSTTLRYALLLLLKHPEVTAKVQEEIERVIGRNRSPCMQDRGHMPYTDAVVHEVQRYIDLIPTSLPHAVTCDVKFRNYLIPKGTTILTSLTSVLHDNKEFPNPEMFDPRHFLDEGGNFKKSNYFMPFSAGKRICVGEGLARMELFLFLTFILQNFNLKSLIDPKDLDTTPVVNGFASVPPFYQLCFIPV
# Chain of CYP 1A2 (P05177 whole entry): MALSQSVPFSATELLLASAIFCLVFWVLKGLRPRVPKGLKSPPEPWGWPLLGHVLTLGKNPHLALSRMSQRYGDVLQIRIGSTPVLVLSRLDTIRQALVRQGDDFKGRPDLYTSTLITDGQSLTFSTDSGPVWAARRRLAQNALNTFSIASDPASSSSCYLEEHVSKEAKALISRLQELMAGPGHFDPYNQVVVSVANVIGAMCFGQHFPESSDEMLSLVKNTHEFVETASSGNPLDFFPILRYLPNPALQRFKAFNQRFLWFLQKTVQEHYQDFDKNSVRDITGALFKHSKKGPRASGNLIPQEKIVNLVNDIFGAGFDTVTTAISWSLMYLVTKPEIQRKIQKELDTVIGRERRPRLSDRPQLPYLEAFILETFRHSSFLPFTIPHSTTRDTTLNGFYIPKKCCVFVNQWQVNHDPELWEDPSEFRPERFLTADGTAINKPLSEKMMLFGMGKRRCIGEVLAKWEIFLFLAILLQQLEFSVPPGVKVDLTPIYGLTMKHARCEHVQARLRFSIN
smiles,measurement,setting,value
"[2H]C([2H])([2H])C1(C([2H])([2H])[2H])NC(=O)N(c2ccc(F)c(C(C)(F)F)c2)C1=O [Compound IE, 3-(3-(1,1-difluoroethyl)-4-fluorophenyl)-5,5-bis(methyl-d3)imidazolidine-2,4-dione]",B:P,[1],1.0
same,chromatographic logD,[2],2.5
same,LogD7.4 (shake flask),[3],1.9
same,logD,[3],1.9
same,% bound,[4],54%
same,fraction unbound,"[4]; mouse, plasma, read-out: % bound (converted)",0.462
same,CLint,[5],<2 μL/min/10^6
same,hepatocyte CLint,[5]; read-out: in vitro CLint,< 2000 µL/min/1e6 cells
same,fraction unbound,[6],0.42
same,IC50,"[7]; 2C19, read-out: CYP inhibition IC50",> 20 µM
same,CYP inhibition,"[7]; CYP 2C19, concentrations up to 20 μM, human liver microsomes",did not inhibit
same,IC50,"[8]; Homo sapiens, DHT-induced, androgen-dependent LAPC4 prostate cancer cell line, read-out: LAPC4 IC50",> 100 µM
same,inhibition of DHT-induced cell proliferation,[8]; concentrations up to 100 μM,did not inhibit
same,AUC,"[9]; male, Sprague Dawley, rat, in vivo, iv, 0.9 mg/kg, IV 0.9 mg/kg, read-out: Plasma AUCIV",31700 ng·h/mL
same,clearance,"[9]; male, Sprague Dawley, rat, in vivo, iv, 0.9 mg/kg, IV 0.9 mg/kg, read-out: Plasma CL",0.476 mL/min/kg
same,Cmax,"[9]; male, Sprague Dawley, rat, in vivo, po, 0.9 mg/kg, PO 0.9 mg/kg, read-out: Plasma Cmax",440 ng/mL
same,Tmax,"[9]; male, Sprague Dawley, rat, in vivo, po, 0.9 mg/kg, PO 0.9 mg/kg, read-out: Tmax",11 h
same,half-life,"[9]; male, Sprague Dawley, rat, in vivo, IV 0.9 mg/kg",32 ± 2 h
same,half-life,"[9]; male, Sprague Dawley, rat, in vivo, PO 0.9 mg/kg",39 h
same,Apparent t1/2,[9]; IV 0.9 mg/kg,32 h
same,PlasmaVSS,[9]; IV 0.9 mg/kg,1.69 L/kg
same,BA,[9]; PO 0.9 mg/kg,113%
same,Plasma AUCoral,[9]; PO 0.9 mg/kg,36.0 H*ug/mL
same,% bound,[10],63%
same,fraction unbound,"[10]; human, plasma, read-out: % bound (converted)",0.367
same,CLint,[11]; Dog cryopreserved hepatocytes,<2 μL/min/10^6
same,hepatocyte CLint,"[11]; dog cryopreserved hepatocytes, read-out: in vitro CLint",< 2000 µL/min/1e6 cells
same,IC50,"[12]; 1A2, read-out: CYP inhibition IC50",> 20 µM
same,CYP inhibition,"[12]; CYP 1A2, concentrations up to 20 μM, human liver microsomes",did not inhibit
same,fraction unbound,[13],0.32
same,microsomal CLint,[14],< 7 µL/min/mg
